{
  "source": "patent US20020187126A1",
  "about": "“Methods for viral oncoapoptosis in cancer therapy” (priority 2001, published 2002)",
  "key": {"primary MEF cells": {"tested_on": "primary MEF cells", "test": "Phase-contrast microscopy and Hoechst staining of infected or treated MEF cells", "assay_type": "cell-based, mouse", "settings": "Hoechst dye, 15 h", "excerpt": "Cells and viruses. All cells were maintained in Dulbecco's modified Eagle's medium (DMEM) containing 5% fetal bovine serum. Human larynx epidermoid carcinoma HEp-2 (Moore, Cancer Res.1955, 15:598-605), epithelial cervical carcinoma HeLa S3 (Puck, et al, J. Exp. Med.1956, 103:273-284, osteosarcoma 143B (Post and Roizman, Cell 1981, 25:227-32), and African green monkey kidney Vero (Yasumura and Kawakita, Nippon Rinsho 1963, 21:1209) cells were obtained from the American Type Culture Collection (Rockville, Md. V2.2 is a derivative Vero cell line, which carries a stably integrated copy of the ICP27 gene (Rice and Knipe, J Virol. 1990, 64:1704-15). Adenovirus type 5 transformed human primary embryonal kidney 293 (Graham et al., J Gen Virol. 1977, 36:59-74) and SV40 T antigen expressing 293T cells were obtained from the ATCC. […]\nTo assess whether rdHSV-1 triggers apoptosis in infected MEF, cell morphologies were documented by phase-contrast microscopy and condensed nuclei were visualized following staining with a fluorescent Hoechst dye. […] Cells were analyzed 15 h post-infection. […] Few, if any, cells with condensed nuclei were detected following infection with either rdHSV-1 strain. […]"}, "[1]": {"tested_on": "primary human foreskin fibroblast (HFF) cells", "test": "DNA laddering by ethidium bromide staining in HFF cells", "assay_type": "cell-based", "settings": "low molecular weight DNA", "method": "(§1) Biochemical induction of apoptosis. Cell apoptosis was induced by the addition of staurosporine (Calbiochem, San Diego, Calif.) to the medium at a final concentration of either 1 or 2 μM. Cells were maintained in the presence of staurosporine for 24 h. TNF (Sigma) was added directly to medium at a final concentration of 10 ng/ml in combination with cycloheximide (Sigma) at a final concentration of 10 μg/ml for 24 h.\nDNA laddering by ethidium bromide staining. Low molecular weight DNA was isolated from cells as described (Koyama and Miwa, J. Virol. 1997, 71:2567; Aubert and Blaho, J. Virol. 1999, 73:2803). The DNA samples were subjected to electropheresis in a horizontal 1.5% agarose gel, followed by staining with 10 μg/ml ethidium bromide. DNA was visualilzed by UV light transillumination and photographed with Polaroid 67 film.\n(§2) The transformed cell lines we analyzed above were of human origin. Thus, it was necessary to confirm our MEF cell results using a primary human cell line. We assessed the p53 status, the susceptibility of rdHSV-1 infection, and the ability to undergo apoptosis of primary human foreskin fibroblast (HFF) cells by immunoblotting, Hoechst staining, and DNA laddering assays. […] Finally, we stained the infected and treated HFF cells with Hoechst DNA dye and visualized cellular and nuclear morphologies by fluorescence and phase-contrast microscopy. […]"}, "293 cells": {"tested_on": "293 cells", "test": "Immunoblots for PARP, caspase-3 and p53 in infected or treated 293 cells", "assay_type": "cell-based, human", "method": "Cells and viruses. All cells were maintained in Dulbecco's modified Eagle's medium (DMEM) containing 5% fetal bovine serum. […]\nExtraction of cells and denaturing gel electrophoresis. Whole extracts of cells were obtained as previously described (Aubert and Blaho, J Virol. 1999, 73:2803-2813; Aubert et al., J. Virol. 1999, 73:10359-70) Protein concentrations were measured using a modified Bradford assay (Biorad) as recommended by the vendor. […]\nThe results above indicate that cells whose p53 is undermodified are susceptible to apoptosis triggered by rdHSV-1 while those which accumulate phosphorylated p53 are resistant. To confirm the prediction that the amount of phosphorylated p53 present in a given cell is an accurate indicator of whether the cell will be killed by an rdHSV-1, 293 cells were analyzed. […]"}, "[2]": {"tested_on": "primary human foreskin fibroblast (HFF) cells", "test": "Hoechst staining, fluorescence and phase-contrast microscopy of HFF cells", "assay_type": "cell-based", "settings": "Hoechst DNA dye", "method": "as §1\nMicroscopic analyses and computer graphics. Infected cell phenotypes were documented by phase-contrast light microscopy using an Olympus CK2/PM-10AK3 system with an attached 35 mm camera. For analyses of chromatin condensation, cells were grown and infected (as described above) in a 35-mm plate. At 24 hours post infection, the cells were incubated with the DNA dye Hoechst 33258 (Sigma) at a final concentration of 5 μg/ml in PBS for 15 minutes at 37° C. […]\nas §2, with “Thus, it was necessary to confirm our MEF cell results using a primary human cell line.” left out"}},
  "data": [
    {"smiles": "CN[C@@H]1C[C@H]2O[C@@](C)([C@@H]1OC)n1c3ccccc3c3c4c(c5c6ccccc6n2c5c31)C(=O)NC4", "note": "[staurosporine]", "values": [
      {"measurement": "cells with condensed nuclei / chromatin", "setting": "primary MEF cells", "result": "significant number of small apoptotic cells which contained condensed chromatin"},
      {"measurement": "DNA laddering / fragmentation", "setting": "[1]", "result": "DNA fragmentation that migrated as a smear"},
      {"measurement": "signs of apoptosis (PARP processing)", "setting": "293 cells; environmental stimulators, double dose of STS", "result": "no signs of apoptosis were detected"},
      {"measurement": "apoptosis (PARP and caspase-3 processing)", "setting": "293 cells; presence or absence of CHX", "result": "did not undergo apoptosis"},
      {"measurement": "condensed chromatin / features of apoptosis", "setting": "[2]", "result": "showed features indicative of apoptosis"}
    ]}
  ]
}
